Assay results: PubChem BioAssay (NCI)
“And” between values parts separate entries of the source, which are not always exact repeats. Equal values may be shown once.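 Where inhibition never reached the appropriate level, the endpoint shown equals the highest concentration tested. Otherwise, values were interpolated linearly from a five-concentration, 48-hour dose response in 96-well plates. GI50 is the concentration that inhibits growth by half. TGI is the concentration that stops growth completely.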

Each compound was assayed on HCT-15 colon (assay: NCI anticancer screen, dose series, 48 h).

Compound | TGI [µM] | GI50
Cc1ccc(C2=Nc3c(c(C)nn3-c3ccccc3)N=C(C(=O)O)C2)cc1 | > 10 | 
CC1CC(C#N)=C2NCCCCN2C1=O (stereo unspecified) | > 100 | 
O=C(OCc1ccccc1)OOC(=O)OCc1ccccc1 | > 100 | 
Cc1ccc(C(=O)Nc2ccc(CP(=O)(O)O)cc2)cc1NC(=O)c1cccc(NC(=O)Nc2cccc(C(=O)Nc3cc(C(=O)Nc4ccc(CP(=O)(O)O)cc4)ccc3C)c2)c1 | > 100 | 
CN(O)C(=O)Cc1ccc(OCc2cccc(Cl)c2)cc1 | > 100 | 
OCc1ccccc1C1CSCSC1 | > 100 | 
CC(C)c1c(P(=O)(c2ccccc2)c2ccccc2)n(C)c2ccccc12 | > 100 | 
CCN(CCCN(CC)C(=O)N[C@@H](Cc1ccccc1)C(=O)NC)C(=O)N[C@@H](Cc1ccccc1)C(=O)NC | > 100 | 
CCOP(=O)(OCC)/C(F)=C/c1ccccc1 | > 100 | 
c1ccc(N=c2snc(-c3ccccc3)s2)cc1 | > 100 | 
CC(C)/C(Cl)=N\OC(=O)NNc1ccccc1 | > 53.7 | 
O=C(/C=C/c1cccs1)c1ccc(Cl)cc1 | > 100 | 
O=C(O)c1ccc(NS(=O)(=O)Cc2ccccc2)cc1 | > 100 | 
O=C1/C(=C/c2ccc(F)cc2)CNC/C1=C\c1ccc(F)cc1 | 1.97 | 
O=C1OC[C@@H]2Cc3c([nH]c4ccccc34)[C@@H](c3ccc(O)cc3)N12 | > 100 | 
Cc1oc2nc(N(C)C)n3nnnc3c2c1C | > 100 | 
CCN(CC)CCCn1c(=O)c2cccnc2n2c3c(=O)n(C)c(=O)n(C)c3nc12 | > 100 | 
CN(C)c1ccc(/C(Br)=C2\OC(=O)c3ccccc32)cc1 | > 100 | 
CC1=C2c3ccccc3N(C(=O)/C=C/C(=O)O)[C@H]2[C@H]2C(=O)OC(=O)[C@H]2C1 | > 10 | 
CC1=CC(=O)N(n2c(C)n[nH]c2=O)C1=O | > 100 | 
CN1CCN(C(=S)N(C)C(=O)c2ccc(Cl)cc2)CC1 | > 100 | 

Compound | TGI [µM] | GI50
CC(=O)Nc1ccc(Cl)c(Cl)c1 | > 100 | 
COc1ccc2c(c1)C(=O)c1ccccc1C2 | > 100 | 
CCOC(=O)C1CC(O)C(=O)N1C (stereo unspecified) | > 100 | 
Cc1cc2cccc(Cl)c2nc1C(=O)c1ccccc1 | > 100 | 
COc1ccc(CNc2nc3ccc(C(F)(F)F)cc3nc2-c2ccccc2)cc1OC | > 100 | 
CC(=O)CC(=O)c1cc2c(=O)oc(C)cc2oc1=O | > 37.5 | 
CCn1c(=O)c2c3cc(O)ccc3oc2c2ccc(O)cc21 | > 100 | 
N#Cc1c2c(c(Nc3ccc(F)cc3)n3c1nc1ccccc13)CCC2 | 13.1 | 
CCOC(=O)c1c(N)n(-c2ccccc2)c(=S)n(-c2ccccc2)c1=O | > 100 | 
COc1cccc(C2c3cc4c(cc3OC(N3CCCC3)C2C)OCO4)c1OC (stereo unspecified) | 16.9 | 
COc1cc2c(cc1OC)C(=O)/C(=C/c1cc(C)c(O)c(C)c1)C2 | > 100 | 
CC(C)=CC1C(C(=O)O)C1(C)C (stereo unspecified) | > 750 | 
COc1cccc(-c2nc(-c3cnccn3)n(Cc3ccccc3)n2)c1 | > 100 | 
COc1cc([C@@H]2c3cc4c(cc3C[C@H]3COC(=O)[C@@H]32)OCO4)cc(OC)c1OC | > 2.32 | 0.00318 µM and 0.0109 µM
C[C@]12CC/C(=N\O)C=C1CC[C@@H]1[C@@H]2CC[C@]2(C)C(=N/O)/C(=C/c3cccnc3)C[C@@H]12 | 44.5 | 
C[C@@H]1C[C@H](O)[C@]2(O)O[C@@H]3C[C@@]4(C=O)[C@@H](CC=C5[C@@H]4CC[C@]4(C)[C@@H](C6=CC(=O)OC6)CC[C@]54O)C[C@H]3O[C@@H]2O1 | 0.194 | 
CC(C)(CO)N1C(=O)c2ccccc2C1(O)c1ccc(Cl)cc1 (stereo unspecified) | > 100 | 
O=c1nc2c(c(-c3cccc(Cl)c3)[nH]1)COC/C2=C\c1cccc(Cl)c1 | > 100 | 
CCOc1ccc(N=C/C=C(\Cl)c2ccc3ccccc3c2)cc1 | 30.2 | 
N#Cc1c(OCCF)c2ccccc2n2c1nc1ccccc12 | > 100 | 

The compounds below were run on UO-31 renal (assay: NCI anticancer screen, dose series, 48 h).

Compound | TGI [µM] | GI50 [µM]
COc1ccc(NC2Oc3cc4c(cc3C(c3cc(OC)c(OC)c(OC)c3)C2C)OCO4)cc1 (stereo unspecified) | 22.1 | 
Cc1ccc(C2=Nc3c(c(C)nn3-c3ccccc3)N=C(C(=O)O)C2)cc1 | > 10 | 
CC1CC(C#N)=C2NCCCCN2C1=O (stereo unspecified) | > 100 | 
O=C(OCc1ccccc1)OOC(=O)OCc1ccccc1 | > 100 | 
Cc1ccc(C(=O)Nc2ccc(CP(=O)(O)O)cc2)cc1NC(=O)c1cccc(NC(=O)Nc2cccc(C(=O)Nc3cc(C(=O)Nc4ccc(CP(=O)(O)O)cc4)ccc3C)c2)c1 | > 100 | 
CN(O)C(=O)Cc1ccc(OCc2cccc(Cl)c2)cc1 | > 100 | 
OCc1ccccc1C1CSCSC1 | > 100 | 
CC(C)c1c(P(=O)(c2ccccc2)c2ccccc2)n(C)c2ccccc12 | > 100 | 
CCN(CCCN(CC)C(=O)N[C@@H](Cc1ccccc1)C(=O)NC)C(=O)N[C@@H](Cc1ccccc1)C(=O)NC | > 100 | 
CCOP(=O)(OCC)/C(F)=C/c1ccccc1 | > 100 | 
c1ccc(N=c2snc(-c3ccccc3)s2)cc1 | > 100 | 
O=C(/C=C/c1cccs1)c1ccc(Cl)cc1 | > 100 | 
O=C(O)c1ccc(NS(=O)(=O)Cc2ccccc2)cc1 | > 100 | 
O=C1/C(=C/c2ccc(F)cc2)CNC/C1=C\c1ccc(F)cc1 | 3.3 | 
O=C1OC[C@@H]2Cc3c([nH]c4ccccc34)[C@@H](c3ccc(O)cc3)N12 | > 100 | 
Cc1oc2nc(N(C)C)n3nnnc3c2c1C | > 100 | 
CCN(CC)CCCn1c(=O)c2cccnc2n2c3c(=O)n(C)c(=O)n(C)c3nc12 | > 100 | 
CN(C)c1ccc(/C(Br)=C2\OC(=O)c3ccccc32)cc1 | > 100 | 
CC1=C2c3ccccc3N(C(=O)/C=C/C(=O)O)[C@H]2[C@H]2C(=O)OC(=O)[C@H]2C1 | > 10 | 
CC1=CC(=O)N(n2c(C)n[nH]c2=O)C1=O | > 100 | 
CN1CCN(C(=S)N(C)C(=O)c2ccc(Cl)cc2)CC1 | > 100 | 
CC(=O)Nc1ccc(Cl)c(Cl)c1 | > 100 | 

Compound | TGI [µM] | GI50 [µM]
COc1ccc2c(c1)C(=O)c1ccccc1C2 | > 100 | 
CCOC(=O)C1CC(O)C(=O)N1C (stereo unspecified) | > 100 | 
Cc1cc2cccc(Cl)c2nc1C(=O)c1ccccc1 | > 100 | 
COc1ccc(CNc2nc3ccc(C(F)(F)F)cc3nc2-c2ccccc2)cc1OC | > 100 | 
CC(=O)CC(=O)c1cc2c(=O)oc(C)cc2oc1=O | > 37.5 | 
CCn1c(=O)c2c3cc(O)ccc3oc2c2ccc(O)cc21 | 46.6 | 
N#Cc1c2c(c(Nc3ccc(F)cc3)n3c1nc1ccccc13)CCC2 | 7.75 | 
CCOC(=O)c1c(N)n(-c2ccccc2)c(=S)n(-c2ccccc2)c1=O | > 100 | 
COc1cccc(C2c3cc4c(cc3OC(N3CCCC3)C2C)OCO4)c1OC (stereo unspecified) | 7.51 | 
COc1cc2c(cc1OC)C(=O)/C(=C/c1cc(C)c(O)c(C)c1)C2 | > 100 | 
CC(C)=CC1C(C(=O)O)C1(C)C (stereo unspecified) | > 750 | 
COc1cccc(-c2nc(-c3cnccn3)n(Cc3ccccc3)n2)c1 | > 100 | 
COc1cc([C@@H]2c3cc4c(cc3C[C@H]3COC(=O)[C@@H]32)OCO4)cc(OC)c1OC | 13.2 | 0.00501
C[C@]12CC/C(=N\O)C=C1CC[C@@H]1[C@@H]2CC[C@]2(C)C(=N/O)/C(=C/c3cccnc3)C[C@@H]12 | 79.9 | 
C[C@@H]1C[C@H](O)[C@]2(O)O[C@@H]3C[C@@]4(C=O)[C@@H](CC=C5[C@@H]4CC[C@]4(C)[C@@H](C6=CC(=O)OC6)CC[C@]54O)C[C@H]3O[C@@H]2O1 | 0.153 | 
CC(C)(CO)N1C(=O)c2ccccc2C1(O)c1ccc(Cl)cc1 (stereo unspecified) | > 100 | 
C=CCCCC12CCCc3cccc(c31)NC2=O (stereo unspecified) | 87.6 | 
O=c1nc2c(c(-c3cccc(Cl)c3)[nH]1)COC/C2=C\c1cccc(Cl)c1 | > 100 | 
CCOc1ccc(N=C/C=C(\Cl)c2ccc3ccccc3c2)cc1 | 29.9 | 
COC1C=CC23c4cc5c(cc4C(O)OC2CN(C)C3C1)OCO5 (stereo unspecified) | 9.3 | 
N#Cc1c(OCCF)c2ccccc2n2c1nc1ccccc12 | > 100 | 
Cc1cccc(N(CCC#N)S(=O)(=O)c2ccccc2)c1 | > 100 | 

The compounds below were run on SF-295 CNS (assay: NCI anticancer screen, dose series, 48 h).

Compound | TGI [µM]
COc1ccc(NC2Oc3cc4c(cc3C(c3cc(OC)c(OC)c(OC)c3)C2C)OCO4)cc1 (stereo unspecified) | 0.971
Cc1ccc(C2=Nc3c(c(C)nn3-c3ccccc3)N=C(C(=O)O)C2)cc1 | > 10
CC1CC(C#N)=C2NCCCCN2C1=O (stereo unspecified) | > 100
O=C(OCc1ccccc1)OOC(=O)OCc1ccccc1 | > 100
Cc1ccc(C(=O)Nc2ccc(CP(=O)(O)O)cc2)cc1NC(=O)c1cccc(NC(=O)Nc2cccc(C(=O)Nc3cc(C(=O)Nc4ccc(CP(=O)(O)O)cc4)ccc3C)c2)c1 | > 100
CN(O)C(=O)Cc1ccc(OCc2cccc(Cl)c2)cc1 | > 100
OCc1ccccc1C1CSCSC1 | > 100
CC(C)c1c(P(=O)(c2ccccc2)c2ccccc2)n(C)c2ccccc12 | > 100
CCN(CCCN(CC)C(=O)N[C@@H](Cc1ccccc1)C(=O)NC)C(=O)N[C@@H](Cc1ccccc1)C(=O)NC | > 100
CCOP(=O)(OCC)/C(F)=C/c1ccccc1 | > 100
CC(C)/C(Cl)=N\OC(=O)NNc1ccccc1 | > 100
O=C(/C=C/c1cccs1)c1ccc(Cl)cc1 | > 100
O=C(O)c1ccc(NS(=O)(=O)Cc2ccccc2)cc1 | > 100
O=C1/C(=C/c2ccc(F)cc2)CNC/C1=C\c1ccc(F)cc1 | 6.19
O=C1OC[C@@H]2Cc3c([nH]c4ccccc34)[C@@H](c3ccc(O)cc3)N12 | > 83.4
Cc1oc2nc(N(C)C)n3nnnc3c2c1C | > 100
CCN(CC)CCCn1c(=O)c2cccnc2n2c3c(=O)n(C)c(=O)n(C)c3nc12 | > 100
CN(C)c1ccc(/C(Br)=C2\OC(=O)c3ccccc32)cc1 | > 100
CC1=C2c3ccccc3N(C(=O)/C=C/C(=O)O)[C@H]2[C@H]2C(=O)OC(=O)[C@H]2C1 | > 10
